Experimental data taken from US11147803B2, “Dementia therapeutic agent combining pyrazoloquinoline derivative and memantine” (Eisai R&D Management Co., Ltd., priority 2017, dated 2021).

Tested on: rats with scopolamine-induced cognitive impairment
Assay: Novel object recognition test using rats with scopolamine-induced cognitive impairment
Type: in vivo, rat (Long Evans)
Details: for percentage of exploration of the novel object in T2: scopolamine 0.7 mg/kg s.c., mean±standard error
Description: [Test Example 1] Novel Object Recognition Test Using Rats with Scopolamine-Induced Cognitive Impairment
Acetylcholine nervous system disorder has been reported in Alzheimer's disease (Whitehouse et al., Science, 1982, vol. 215, p. 1237), and scopolamine-administered animals are utilizable as an animal model for Alzheimer's disease. Scopolamine is a muscarine receptor inhibitor which blocks acetylcholine nervous system transmission.
6-week-old male Long Evans rats (Institute for Animal Reproduction) were subjected to the test. A habituation process to the experimental procedure was carried out once per day for 2 days prior to the test. In the habituation process, a vehicle was administered to the rats, and then the rats were placed in an empty test apparatus (40 cm×30 cm×45 cm height) and allowed to explore for 3 minutes, and after then placed in a waiting chamber (13 cm×30 cm×45 cm height) for about 1 minute, they were returned to the empty test apparatus again and left for 5 minutes.
An acquisition trial (T1) was carried out on the day of the test. Compound (I) was orally administered 2 hours before T1. Memantine hydrochloride was orally administered 1 hour before T1. Scopolamine (Wako Pure Chemical Industries, Ltd.) was subcutaneously administered 30 minutes before T1 at a dose of 0.7 mg/kg. In T1, the rats were habituated to the empty test apparatus for 3 minutes and then placed in the waiting chamber. After setting two identical objects in the test apparatus, the rats were returned into the test apparatus again and allowed to freely explore the two identical objects for 5 minutes. The rats were then returned into their rearing cages. After 2 hours, a retention trial (T2) was carried out. The rats were placed in the empty test apparatus for 3 minutes for habituation, and were then transferred into the waiting chamber. After setting an object used in T1 (“familiar” object) and an object not used in T1 (“novel” object) in the test apparatus, the rats were again returned into the test apparatus and allowed to freely explore these objects for 3 minutes. The objects were wiped with a wet wipe impregnated with ethanol after each experiment so as to leave no trace of odor. The behaviors of the rats during T1 and T2 were recorded by a digital video camera, and the total exploration time for each object was manually measured using a stopwatch. Exploratory behavior was defined as the behavior in which the rat brings its nose within 2 cm of the object and directs its nose toward the object.
In the novel object recognition test, the percentage of exploration of the novel object in T2 is considered to be an index for amnesia, reflecting discrimination between the familiar object and the novel object. The percentage of exploration of the novel object was calculated by the following formula. The percentage of exploration of the novel object (%)=N/(N+F)×100 F: time spent in exploring the familiar object N: time spent in exploring the novel object
Rats whose total time spent in exploring the objects during T1 or T2 was 10 seconds or less or rats whose percentage of the time spent in exploring either of the objects during T1 was not less than 70% or not more than 30% of the total exploration time were excluded from the data analysis.
The results were expressed as mean±standard error. The difference between the normal control group untreated with scopolamine and the disease control group treated with scopolamine was analyzed by an unpaired t-test (significant difference: *). The difference between the disease control group and the single drug-treated group was analyzed by Dunnett-type multiple comparison test (significant difference: #). The difference between the combined treatment group and the single drug-treated group was analyzed by an unpaired t-test (significant difference: ※). A value of p<0.05 was judged to be a statistically significant difference. Statistical analysis was conducted using GraphPad Prism version 5.04 or 6.02.

Row | Structure (SMILES) | percentage of exploration of the novel object in T2 (Compound (I) 0.3 mg/kg orally 2 hours before T1) [%] | percentage of exploration of the novel object in T2 (Compound (I) 1 mg/kg orally 2 hours before T1) [%] | percentage of exploration of the novel object in T2 (Compound (I) 3.3 mg/kg orally 2 hours before T1, # significant vs disease control) | percentage of exploration of the novel object in T2 (Compound (I) 10 mg/kg orally 2 hours before T1, # significant vs disease control) | ameliorative effect on the percentage of exploration of the novel object (significance vs disease control) (compound (I) 1 mg/kg (Table 1)) | ameliorative effect on the percentage of exploration of the novel object (significance vs disease control) (compound (I) 3.3 mg/kg (Table 2)) | percentage of exploration of the novel object in T2 (Memantine 1 mg/kg orally 1 hour before T1) [%] | percentage of exploration of the novel object in T2 (Memantine 3 mg/kg orally 1 hour before T1, # significant vs disease control) | percentage of exploration of the novel object in T2 (Memantine 10 mg/kg orally 1 hour before T1) [%] | ameliorative effect on the percentage of exploration of the novel object (significance vs disease control) (memantine hydrochloride 1 mg/kg alone (Table 4)) | ameliorative effect on the percentage of exploration of the novel object (significance vs disease control) (memantine hydrochloride 3 mg/kg (Table 3))
1 | COc1ncc(C)c(-c2ccc3c(c2)[nH]c(=O)c2cnn([C@H]4CCOC4)c23)c1C [Compound (I), (S)-7-(2-methoxy-3,5-dimethylpyridin-4-yl)-1-(tetrahydrofuran-3-yl)-1H-pyrazolo[4,3-c]quinoline-4(5H)-one] | 58.7 ± 3.2 | 59.9 ± 3.4 | 68.5 ± 2.0# % | 68.5 ± 1.6# % | did not exhibit a significant effect | significant ameliorative effect | – | – | – | – | –
2 | CC12CC3CC(C)(C1)CC(N)(C3)C2 [Memantine, memantine] | – | – | – | – | – | – | 58.1 ± 2.4 | 68.9 ± 4.0# % | 59.9 ± 3.8 | no significant ameliorative effect | significant ameliorative effect
